Here are results for eleven molecules from ChEMBL document CHEMBL1201862, “PubChem BioAssay data set” (2004).

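Cultured in 96-well plates, cells were exposed to test compound for 48 hours across five concentrations. GI50 = concentration required for 50% inhibition of growth.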 Calls of active or inactive are those of the source. Cut-off read from the data, not from the text of the source: active = GI50 up to about 1.1 µM and inactive = higher.

Holding throughout (experiment): NCI-60 cell line screen, 48 h
Experiment [1] relates to HOP-92.
In experiment [2] the test system is A498.
Experiment [3] has as its system U-251.
Experiment [4] relates to SK-MEL-5.
Experiment [5] concerns HCT-116.
In experiment [6] the test system is SW-620.
For experiment [7], the system named is IGROV-1.
Experiment [8] deals with RPMI-8226.
Experiment [9] deals with SR.
The test system of experiment [10] is SF-295.
Experiment [11] relates to SK-MEL-2.
Experiment [12] relates to OVCAR-3.
The subject of experiment [13] is HCC 2998.
The subject of experiment [14] is HCT-15.
In experiment [15] the test system is MOLT-4.
Experiment [16] has as its system UO-31.
Experiment [17] deals with A549.
Experiment [18] relates to ACHN.

In the case of `O=C(CCc1cc(-c2ccccc2)[nH]c(=S)n1)Nc1ccccc1[N+](=O)[O-]`, the GI50 in experiment [1], in experiment [2], in experiment [3], in experiment [4], in [5] and in [6] was > 100 µM (inactive) throughout. Besides, the GI50 in experiment [7], in experiment [8], in experiment [9], in [10], in experiment [11] and in experiment [12] was > 100 µM (inactive) in each case. Also, the GI50 in experiment [13] is > 100 µM (inactive); in [14], over 100 µM; in experiment [15], > 100 µM (inactive); in experiment [16], > 100 µM (inactive); in experiment [17], > 100 µM (inactive); in experiment [18] it was > 100 µM (inactive).
Take `CCCCNS(=O)(=O)c1ccc(-c2ccc3c(c2)-c2ccc(S(=O)(=O)NCCCC)cc2S3(=O)=O)cc1`: the GI50 was 19.3 µM (inactive) in experiment [1]; 11.4 µM (inactive) in [2]; 23 µM (inactive) in [3]; 2.18 µM (inactive) in experiment [4]; 14.9 µM (inactive) in experiment [5]; 15.2 µM (inactive) in experiment [6]. For the same molecule, the GI50 in experiment [7] is 32.8 µM (inactive); in [8] it was 27.9 µM (inactive); in experiment [9], 72.1 µM (inactive); in experiment [10], 15 µM (inactive); in experiment [11], 12.9 µM (inactive); in experiment [12], 24.9 µM (inactive). For the same molecule, the GI50 is > 100 µM (inactive) in experiment [13]; 72.8 µM in experiment [14]; > 100 µM (inactive) in experiment [15]; 42.5 µM (inactive) in experiment [16]; 14 µM (inactive) in [17]; 21.6 µM (inactive) in experiment [18].
In the case of `CCN(CC)CCOc1ccc(C(O)(Cc2ccc(OC)cc2)c2ccccc2)cc1` (stereo not drawn), the GI50 in [1] is 14.7 µM (inactive); in experiment [2], 18.1 µM (inactive); in experiment [3], 16.2 µM (inactive); in [4], 13.2 µM (inactive); in [5], 13.8 µM (inactive); in experiment [6], 17.2 µM (inactive). The GI50 is 32.6 µM (inactive) in experiment [7]; 13.4 µM (inactive) in [8]; 10.7 µM (inactive) in [9]; 17.7 µM (inactive) in experiment [10]; 14.9 µM (inactive) in experiment [11]; 34.1 µM (inactive) in [12]. The GI50 in [13] is 14 µM (inactive); in experiment [14], 19.1 µM; in experiment [15] it was 14.4 µM (inactive); in experiment [16] it was 22 µM (inactive); in experiment [17], 21.8 µM (inactive); in experiment [18], 27.5 µM (inactive).
On to `CCOC(=O)NC1C2CC(=O)OC(O2)C1OC(C)=O` (stereo not drawn), for which the GI50 in experiment [1], in experiment [2], in experiment [3], in [4], in experiment [5] and in experiment [6] was > 100 µM (inactive) each time. The GI50 was 59.7 µM (inactive) in experiment [7]; > 100 µM (inactive) in experiment [8]; > 100 µM (inactive) in experiment [9]; > 100 µM (inactive) in experiment [10]; > 100 µM (inactive) in experiment [11]; > 100 µM (inactive) in experiment [12]. Besides, the GI50 in [13] was > 100 µM (inactive); in experiment [14] it was over 100 µM; in experiment [15], > 100 µM (inactive); in [16], 60.7 µM (inactive); in experiment [17], > 100 µM (inactive); in experiment [18], > 100 µM (inactive).
For the molecule `Clc1ccc(-c2c(C3=NCCN3)nnn2-c2ccc(Cl)cc2)cc1`, the GI50 in experiment [1] was 18.2 µM (inactive); in [2], 17.4 µM (inactive); in experiment [3] it was 20.5 µM (inactive); in experiment [4], 16.8 µM (inactive); in [5] it was 15 µM (inactive); in [6] it was 25.9 µM (inactive). Besides, the GI50 is 56 µM (inactive) in [7]; 16.7 µM (inactive) in experiment [8]; 13.4 µM (inactive) in [9]; 19.5 µM (inactive) in experiment [10]; 13.1 µM (inactive) in experiment [11]; 48.9 µM (inactive) in experiment [12]. The GI50 in [13] was 17.1 µM (inactive); in experiment [14], 30.1 µM; in experiment [15], 11.4 µM (inactive); in experiment [16], 14.4 µM (inactive); in [17] it was 53.2 µM (inactive); in [18] it was 39.7 µM (inactive).
As to `CC1=C(C(=O)Nc2ccccc2C)C(c2ccccc2O)C(C(=O)Nc2ccccc2C)=C(C)N1`, the GI50 in experiment [1] is 51.4 µM (inactive); in experiment [2], 21.4 µM (inactive); in [4], 20 µM (inactive); in experiment [5], 18.4 µM (inactive); in [6], 33 µM (inactive); in experiment [7], 17.6 µM (inactive). For the same molecule, the GI50 is 20.3 µM (inactive) in experiment [8]; 12.3 µM (inactive) in [9]; 18.6 µM (inactive) in experiment [10]; 17.1 µM (inactive) in [11]; 17.3 µM (inactive) in [12]; 15.9 µM (inactive) in experiment [13]. Further, the GI50 in experiment [14] is 16 µM; in [15], 27.5 µM (inactive); in experiment [16], 16.8 µM (inactive); in experiment [17] it was 33.7 µM (inactive); in experiment [18] it was 22.3 µM (inactive).
Consider `C/C=C/C1(NS(=O)(=O)c2ccc(C)cc2)CCC(C(C)(C)C)CC1` (stereo not drawn), for which the GI50 in experiment [1] was 19.7 µM (inactive); in experiment [2] it was 24 µM (inactive); in experiment [3], 16.1 µM (inactive); in experiment [4], 17.5 µM (inactive); in [5], 20.1 µM (inactive); in experiment [6] it was 26.1 µM (inactive). The GI50 in experiment [7] was 28.8 µM (inactive); in experiment [8], 21.6 µM (inactive); in experiment [9] it was 13.6 µM (inactive); in [10], 26.2 µM (inactive); in [11] it was 17.3 µM (inactive); in experiment [12] it was 17.7 µM (inactive). For the same molecule, the GI50 in experiment [13] was 16.2 µM (inactive); in experiment [14], 28.6 µM; in experiment [15], 16.5 µM (inactive); in [16] it was 25.4 µM (inactive); in experiment [17], 40.7 µM (inactive); in experiment [18], 36.2 µM (inactive).
Regarding `N#CCCN(c1ccc(/C=N/c2ccccc2Cl)cc1)S(=O)(=O)c1ccccc1`, the GI50 in experiment [1], in experiment [2], in experiment [3], in [4], in [5] and in experiment [6] was > 100 µM (inactive) in each case. Further, the GI50 in experiment [7], in [8], in experiment [9], in experiment [10], in [11] and in experiment [12] was > 100 µM (inactive) throughout. For the same molecule, the GI50 was > 100 µM (inactive) in [13]; over 100 µM in [14]; > 100 µM (inactive) in experiment [15]; > 100 µM (inactive) in [16]; > 100 µM (inactive) in experiment [17]; > 100 µM (inactive) in experiment [18].
`N#CC(Sc1ccccc1)C(N)=O` (stereo not drawn): the GI50 in experiment [1], in experiment [2], in experiment [3], in experiment [4], in experiment [5] and in [6] was > 100 µM (inactive) in each case. For the same molecule, the GI50 in [7], in experiment [8], in experiment [9], in [10], in experiment [12] and in experiment [13] was > 100 µM (inactive) throughout. The GI50 in [14] was over 100 µM; in experiment [15] it was > 100 µM (inactive); in experiment [16], > 100 µM (inactive); in experiment [17] it was > 100 µM (inactive).
Turning to `O=C(O)/C(=C\c1ccccc1Cl)S(=O)(=O)c1ccccc1`, the GI50 in [1], in experiment [2], in [3], in experiment [4], in experiment [5] and in [6] was > 100 µM (inactive) throughout. Moreover, the GI50 was > 100 µM (inactive) in experiment [7]; > 100 µM (inactive) in experiment [8]; > 10 µM (inactive) in [9]; > 100 µM (inactive) in [10]; > 100 µM (inactive) in [11]; > 100 µM (inactive) in experiment [13]. Moreover, the GI50 in [14] is over 100 µM; in [15], > 100 µM (inactive); in experiment [16], > 100 µM (inactive); in experiment [17], > 100 µM (inactive); in [18] it was > 100 µM (inactive).
Consider `CC#CC(OCC)(OCC)OCC`, for which the GI50 in [1], in experiment [2], in experiment [3], in [4], in [5] and in experiment [7] was > 100 µM (inactive) in each case. The GI50 in experiment [8], in [9], in [10], in experiment [11], in experiment [12] and in experiment [13] was > 100 µM (inactive) each time. Also, the GI50 in experiment [14] was 39.1 µM; in experiment [15], > 100 µM (inactive); in [16], > 100 µM (inactive); in experiment [17] it was > 100 µM (inactive); in experiment [18] it was > 100 µM (inactive).
